Reference: US12655142B2 (Merck Patent GmbH, priority 2019, dated 2026)

Tests used:
[1] = molecular target: T1, GIST430/654 cell line expressing mutated constitutively active cKIT receptor tyrosine kinase (Δ560-576 deletion and V654A point mutation) (Homo sapiens, UniProt P10721, DEL560-576/V654A); test: Cellular cKIT autophosphorylation (phospho-Y307-cKIT, Luminex bead assay) in GIST430/654 cells; type: cell-based; conditions: compounds 45 min, read-out: GIST 430/654 IC50
T1 construct: endogenous in cells; host or cells: GIST430/654 cells
T1 sequence (P10721 with tags, fused parts or gaps DEL560-576/V654A): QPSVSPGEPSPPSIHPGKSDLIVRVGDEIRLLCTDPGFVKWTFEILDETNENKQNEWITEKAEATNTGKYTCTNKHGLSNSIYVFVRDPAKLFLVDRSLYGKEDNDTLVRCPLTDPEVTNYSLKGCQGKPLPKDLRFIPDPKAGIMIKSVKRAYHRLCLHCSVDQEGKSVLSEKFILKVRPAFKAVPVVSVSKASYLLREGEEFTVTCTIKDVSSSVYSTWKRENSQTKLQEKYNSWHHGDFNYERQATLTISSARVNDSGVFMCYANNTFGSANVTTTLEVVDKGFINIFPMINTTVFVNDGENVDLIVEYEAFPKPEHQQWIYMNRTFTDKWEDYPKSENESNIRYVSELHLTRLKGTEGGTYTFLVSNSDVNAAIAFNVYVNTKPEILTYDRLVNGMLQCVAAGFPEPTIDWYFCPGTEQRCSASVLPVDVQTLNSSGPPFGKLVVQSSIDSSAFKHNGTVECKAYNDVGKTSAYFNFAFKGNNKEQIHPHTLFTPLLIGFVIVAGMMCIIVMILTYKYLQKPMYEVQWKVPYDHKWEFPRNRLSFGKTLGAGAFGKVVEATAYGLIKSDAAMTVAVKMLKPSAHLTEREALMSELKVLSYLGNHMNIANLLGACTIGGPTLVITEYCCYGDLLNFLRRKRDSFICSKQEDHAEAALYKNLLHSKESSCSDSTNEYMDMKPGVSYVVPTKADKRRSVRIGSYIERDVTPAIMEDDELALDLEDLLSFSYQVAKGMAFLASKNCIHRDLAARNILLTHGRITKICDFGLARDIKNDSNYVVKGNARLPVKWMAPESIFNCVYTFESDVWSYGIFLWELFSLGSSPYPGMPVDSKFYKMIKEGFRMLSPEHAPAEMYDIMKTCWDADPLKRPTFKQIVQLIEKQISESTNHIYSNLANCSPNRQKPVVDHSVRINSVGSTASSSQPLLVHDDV
In short: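 GIST430 (Δ560-576) and imatinib-resistant GIST430/654 (plus V654A; grown with 100 nM imatinib) cells were plated in IMDM/15% FCS and treated next day with serially diluted compound for 45 min. Lysates were captured on anti-total-cKIT Luminex beads overnight at 4 °C and probed for phospho-Y307. IC50 was taken from percent of 0.3% DMSO control.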

[2] = Determination of Efflux-Ratio (ER) in Caco-2 cells; conditions: human, Caco-2, pH 7.4
[3] = molecular target: T2, c-Kit(V654A) (Homo sapiens, UniProt P10721, V654A); test: c-Kit(V654A) assay (33P-ATP filter binding kinase assay); type: biochemical; conditions: recombinant human c-Kit aa 544-end V654A, ATP 200 μM
T2 construct: recombinant human c-Kit, amino acids 544-end containing the V654A mutation; GST (N)
T2 sequence (P10721 544-976 V654A): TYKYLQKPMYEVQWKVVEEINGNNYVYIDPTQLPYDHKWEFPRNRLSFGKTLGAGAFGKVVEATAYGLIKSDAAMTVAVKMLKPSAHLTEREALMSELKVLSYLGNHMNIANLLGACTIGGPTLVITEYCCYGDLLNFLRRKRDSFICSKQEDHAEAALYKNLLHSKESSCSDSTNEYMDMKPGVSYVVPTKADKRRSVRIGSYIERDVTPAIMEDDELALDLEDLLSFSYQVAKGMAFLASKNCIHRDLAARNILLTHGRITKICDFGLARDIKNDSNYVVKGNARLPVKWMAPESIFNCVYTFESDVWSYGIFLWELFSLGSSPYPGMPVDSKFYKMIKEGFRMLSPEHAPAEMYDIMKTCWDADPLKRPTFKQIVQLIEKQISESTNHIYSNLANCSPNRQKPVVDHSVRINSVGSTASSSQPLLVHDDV
In short: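 Radiometric filter-binding read-out: substrate 33P incorporation counted by scintillation after P30 filtermat washes in 75 mM phosphoric acid and methanol. Enzyme: N-GST recombinant human c-Kit aa 544-end carrying V654A.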

IC50 [1]	efflux ratio at 2 h, 1 μM [2]	IC50 [3]	SMILES
170 nM	15 to 50	12 nM	Cc1nc2n(n1)CCN(CCOc1ccn3c(-c4cc(NCc5ccc(-c6cnn(C)c6)cc5)ncn4)cnc3c1)C2 [A204, (6-{7-[2-(2-methyl-5,6-dihydro-8H-[1,2,4]triazolo[1,5-a]pyrazin-7-yl)-ethoxy]-imidazo[1,2-a]pyridin-3-yl}-pyrimidin-4-yl)-[4-(1-methyl-1H-pyrazol-4-yl)-benzyl]-amine]
110 nM	< 15	10 nM	CN(CC#N)CCOc1ccn2c(-c3cc(NCc4ccc(-c5cnn(C)c5)cc4)ncn3)cnc2c1 [A205, {methyl-[2-(3-{6-[4-(1-methyl-1H-pyrazol-4-yl)-benzylamino]-pyrimidin-4-yl}-imidazo[1,2-a]pyridin-7-yloxy)-ethyl]-amino}-acetonitrile]
100 nM	< 15	7.1 nM	Cn1cc(-c2ccc(CNc3cc(-c4cnc5cc(OCCN6CC(C)(C#N)C6)ccn45)ncn3)cc2)cn1 [A206]
230 nM	< 15	38 nM	CN(CCOc1ccn2c(-c3cc(NCc4ccc(-c5cnn(C)c5)cc4)ncn3)cnc2c1)CC(F)(F)F [A208, [4-(1-methyl-1H-pyrazol-4-yl)-benzyl]-[6-(7-{2-[methyl-(2,2,2-trifluoro-ethyl)-amino]-ethoxy}-imidazo[1,2-a]pyridin-3-yl)-pyrimidin-4-yl]-amine]
85 nM	< 15	10 nM	Cn1cc(-c2ccc(CNc3cc(-c4cnc5cc(OCCN6CCO[C@@H]7COCC[C@@H]76)ccn45)ncn3)cc2)cn1 [A211, (6-{7-[(4aS,8aS)-2-(hexahydro-pyrano[3,4-b][1,4]oxazin-1-yl)-ethoxy]-imidazo[1,2-a]pyridin-3-yl}-pyrimidin-4-yl)-[4-(1-methyl-1H-pyrazol-4-yl)-benzyl]-amine]
180 nM	< 15	16 nM	Cc1noc(C2CN(CCOc3ccn4c(-c5cc(NCc6ccc(-c7cnn(C)c7)cc6)ncn5)cnc4c3)C2)n1 [A213, [6-(7-{2-[3-(3-methyl-[1,2,4]oxadiazol-5-yl)-azetidin-1-yl]-ethoxy}-imidazo[1,2-a]pyridin-3-yl)-pyrimidin-4-yl]-[4-(1-methyl-1H-pyrazol-4-yl)-benzyl]-amine]
180 nM	< 15	21 nM	Cn1cc(-c2ccc(CNc3cc(-c4cnc5cc(OCCN6CCOC(F)(F)C6)ccn45)ncn3)cc2)cn1 [A214, (6-{7-[2-(2,2-difluoro-morpholin-4-yl)-ethoxy]-imidazo[1,2-a]pyridin-3-yl}-pyrimidin-4-yl)-[4-(1-methyl-1H-pyrazol-4-yl)-benzyl]-amine]
120 nM	> 50	10 nM	Cn1cc(-c2ccc(CNc3cc(-c4cnc5cc(OCCN6CC(S(C)(=O)=O)C6)ccn45)ncn3)cc2)cn1 [A215, (6-{7-[2-(3-methanesulfonyl-azetidin-1-yl)-ethoxy]-imidazo[1,2-a]pyridin-3-yl}-pyrimidin-4-yl)-[4-(1-methyl-1H-pyrazol-4-yl)-benzyl]-amine]
130 nM	< 15	8.2 nM	Cn1cc(-c2ccc(CNc3cc(-c4cnc5cc(OCCN6CCn7nccc7C6)ccn45)ncn3)cc2)cn1 [A216, (6-{7-[2-(6,7-dihydro-4H-pyrazolo[1,5-a]pyrazin-5-yl)-ethoxy]-imidazo[1,2-a]pyridin-3-yl}-pyrimidin-4-yl)-[4-(1-methyl-1H-pyrazol-4-yl)-benzyl]-amine]
200 nM	< 15	11 nM	Cn1cc(-c2ccc(CNc3cc(-c4cnc5cc(OCCN6CCn7cccc7C6)ccn45)ncn3)cc2)cn1 [A218, (6-{7-[2-(3,4-dihydro-1H-pyrrolo[1,2-a]pyrazin-2-yl)-ethoxy]-imidazo[1,2-a]pyridin-3-yl}-pyrimidin-4-yl)-[4-(1-methyl-1H-pyrazol-4-yl)-benzyl]-amine]
